In ChEMBL document CHEMBL1201862, “PubChem BioAssay data set” (2004):
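Results reflect a 48-hour exposure of cells in 96-well plates to compound at five concentrations. At the GI50, growth is halved.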 Calls of active or inactive are those of the source. Rule as the data show it: active = GI50 up to about 1.1 µM and inactive = higher.

How the values were obtained:
Experiment in all cases: NCI anticancer screen, dose series, 48 h
SR = tested on: SR
OVCAR-3 = tested on: OVCAR-3
HT-29 = tested on: HT-29
SK-MEL-5 = tested on: SK-MEL-5
SF-539 = tested on: SF-539
RPMI-8226 = tested on: RPMI-8226
ACHN = tested on: ACHN
NCI/ADR-RES = tested on: NCI/ADR-RES
KM12 = tested on: KM12
MOLT-4 = tested on: MOLT-4
UACC-257 = tested on: UACC-257
NCI-H460 = tested on: NCI-H460
SNB-75 = tested on: SNB-75
OVCAR-5 = tested on: OVCAR-5
U-251 = tested on: U-251
UACC-62 = tested on: UACC-62
LOX IMVI = tested on: LOX IMVI
PC-3 = tested on: PC-3
SN12C = tested on: SN12C
SK-MEL-2 = tested on: SK-MEL-2

Measured: GI50

CN1CCCC2C(c3ccccc3)C(C3=NCCCC3)C(c3ccccc3)CC21 (stereo not given)
inactive: SR 32.1 µM | OVCAR-3 35.6 µM | HT-29 19.5 µM | SK-MEL-5 16.9 µM | SF-539 16 µM | RPMI-8226 18.4 µM | ACHN 72.3 µM | NCI/ADR-RES 53.8 µM | KM12 53.2 µM | MOLT-4 31.3 µM | UACC-257 19.1 µM | NCI-H460 27.7 µM | SNB-75 13.6 µM | OVCAR-5 > 100 µM | U-251 32.2 µM | UACC-62 17.8 µM | LOX IMVI 19.5 µM | PC-3 44.7 µM | SN12C > 100 µM | SK-MEL-2 > 100 µM

N=C(N)c1ccc(/N=N\c2c(O)c(C(=O)Nc3ccccc3)cc3ccccc23)cc1
inactive: SR 7.89 µM | OVCAR-3 32.7 µM | HT-29 18.4 µM | SK-MEL-5 22.4 µM | SF-539 21 µM | RPMI-8226 4.6 µM | ACHN 23.3 µM | NCI/ADR-RES > 100 µM | KM12 16.4 µM | MOLT-4 2.58 µM | UACC-257 > 68.7 µM | NCI-H460 24.8 µM | SNB-75 12.9 µM | OVCAR-5 31.6 µM | U-251 3.76 µM | UACC-62 > 87.5 µM | LOX IMVI 2.02 µM | PC-3 17.9 µM | SN12C 23.8 µM | SK-MEL-2 68.1 µM

Cc1nc(Nc2ccccc2Cl)sc1C(=O)CC(=O)C(=O)Nc1c(Cl)cccc1Cl
inactive: SR 31.2 µM | OVCAR-3 17.4 µM | HT-29 25.4 µM | SK-MEL-5 31.7 µM | SF-539 26.9 µM | RPMI-8226 28.2 µM | ACHN 45 µM | NCI/ADR-RES 22.3 µM | KM12 25.4 µM | MOLT-4 24 µM | UACC-257 44.4 µM | NCI-H460 34.5 µM | SNB-75 24.4 µM | OVCAR-5 24.9 µM | U-251 24.9 µM | UACC-62 45.6 µM | LOX IMVI 27.4 µM | PC-3 27.3 µM | SN12C 44 µM | SK-MEL-2 16.1 µM

Cc1ccc(OP(=O)(Oc2ccc(C)cc2)N2C=Cc3ccccc3C2C#N)cc1 (stereo not given)
inactive: SR > 100 µM | OVCAR-3 > 100 µM | HT-29 > 100 µM | SK-MEL-5 > 100 µM | SF-539 > 100 µM | RPMI-8226 > 100 µM | ACHN > 100 µM | NCI/ADR-RES > 100 µM | KM12 > 100 µM | MOLT-4 > 100 µM | UACC-257 > 100 µM | NCI-H460 > 100 µM | SNB-75 > 100 µM | OVCAR-5 > 100 µM | U-251 > 100 µM | UACC-62 > 100 µM | LOX IMVI > 100 µM | PC-3 > 100 µM | SN12C > 100 µM | SK-MEL-2 > 100 µM

CN(C)CCCn1nc(N)c2nc3cc(Cl)ccc3nc21
inactive: SR 32.5 µM | OVCAR-3 99.8 µM | HT-29 27.9 µM | SK-MEL-5 20 µM | SF-539 38.2 µM | RPMI-8226 60.3 µM | ACHN 39.7 µM | NCI/ADR-RES 71.8 µM | KM12 43.9 µM | MOLT-4 > 50.4 µM | UACC-257 24.5 µM | NCI-H460 39.3 µM | SNB-75 67.8 µM | OVCAR-5 40.4 µM | U-251 44.8 µM | UACC-62 20.7 µM | LOX IMVI 34.8 µM | PC-3 41.4 µM | SN12C 59.8 µM | SK-MEL-2 28.3 µM

O=C(c1ccco1)N(Cc1ccco1)C(=S)Nc1ccccc1
inactive: SR 3.1 µM | OVCAR-3 15.7 µM | HT-29 8.71 µM | SK-MEL-5 17.5 µM | SF-539 6.46 µM | RPMI-8226 3.1 µM | ACHN 19.5 µM | NCI/ADR-RES 21.9 µM | KM12 8.2 µM | MOLT-4 7.08 µM | UACC-257 15.7 µM | NCI-H460 49.1 µM | SNB-75 18.5 µM | OVCAR-5 36.5 µM | U-251 28.3 µM | UACC-62 14.1 µM | LOX IMVI 7.21 µM | PC-3 30.5 µM | SN12C 14.5 µM | SK-MEL-2 18.8 µM
